According to patent publication US7880010B2, “Crystalline forms of a dimethylphenyl compound” (Theravance, Inc., priority 2006, dated 2011):

Key:
Assay in all cases: Radioligand binding assay for muscarinic receptors ([3H]-NMS displacement)
[1] = molecular target: T1, hM1 muscarinic receptor (Homo sapiens, UniProt P11229); conditions: M1 muscarinic receptor subtype, CHO cell membranes, [3H]-NMS 1 nM
T1 construct: expressed in transfected cells; host or cells: CHO
T1 sequence (P11229 1-460): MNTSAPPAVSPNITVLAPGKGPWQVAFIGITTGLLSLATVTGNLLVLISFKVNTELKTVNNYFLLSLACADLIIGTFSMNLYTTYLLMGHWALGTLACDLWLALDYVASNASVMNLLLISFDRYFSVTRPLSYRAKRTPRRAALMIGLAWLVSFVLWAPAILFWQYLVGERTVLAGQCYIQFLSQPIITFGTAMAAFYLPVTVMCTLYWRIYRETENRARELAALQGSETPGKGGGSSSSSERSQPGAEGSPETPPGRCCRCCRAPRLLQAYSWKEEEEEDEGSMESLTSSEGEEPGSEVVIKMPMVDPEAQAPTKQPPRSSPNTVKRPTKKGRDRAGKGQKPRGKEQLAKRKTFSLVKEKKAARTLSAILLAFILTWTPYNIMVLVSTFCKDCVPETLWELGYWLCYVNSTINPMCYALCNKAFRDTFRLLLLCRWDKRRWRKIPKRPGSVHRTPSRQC
Description: (§1) CHO cell lines stably expressing cloned human hM1, hM2, hM3 and hM4 muscarinic receptor subtypes, respectively, were grown to near confluency in Hams F-12 media supplemented with 10% FBS and 250 μg/mL Geneticin. The cells were grown in a 5% CO2, 37° C. incubator and lifted with 2 mM EDTA in dPBS. Cells were collected by 5 minute centrifugation at 650×g, and cell pellets were either stored frozen at −80° C. or membranes were prepared immediately for use. For membrane preparation, cell pellets were resuspended in lysis buffer and homogenized with a Polytron PT-2100 tissue disrupter (Kinematica AG; 20 seconds×2 bursts). Crude membranes were centrifuged at 40,000×g for 15 minutes at 4° C. The membrane pellet was then resuspended with re-suspension buffer and homogenized again with the Polytron tissue disrupter. The protein concentration of the membrane suspension was determined by the method described in Lowry et al., 1951, Journal of Biochemistry, 193, 265. All membranes were stored frozen in aliquots at −80° C. or used immediately. Aliquots of prepared hM5 receptor membranes were purchased directly from PerkinElmer, Inc. (Wellesley, Mass.) and stored at −80° C. until use.
(§2) Radioligand binding assays for cloned muscarinic receptors were performed in 96-well microtiter plates in a total assay volume of 100 μL. CHO cell membranes stably expressing either the hM1, hM2, hM3, hM4 or hM5 muscarinic subtype were diluted in assay buffer to the following specific target protein concentrations (μg/well): 10 μg for hM1, 10-15 μg for hM2, 10-20 μg for hM3, 10-20 μg for hM4, and 10-12 μg for hM5 to get similar signals (cpm). The membranes were briefly homogenized using a Polytron tissue disrupter (10 seconds) prior to assay plate addition. Saturation binding studies for determining KD values of the radioligand were performed using L-[N-methyl-^3H]scopolamine methyl chloride ([^3H]-NMS) (TRK666, 84.0 Ci/mmol, Amersham Pharmacia Biotech, Buckinghamshire, England) at concentrations ranging from 0.001 nM to 20 nM. Displacement assays for determination of Ki values of test compounds were performed with [^3H]-NMS at 1 nM and eleven different test compound concentrations. The test compounds were initially dissolved to a concentration of 400 μM in dilution buffer and then serially diluted 5× with dilution buffer to final concentrations ranging from 10 pM to 100 μM. The addition order and volumes to the assay plates were as follows: 25 μL radioligand, 25 μL diluted test compound, and 50 μL membranes. Assay plates were incubated for 60 minutes at 37° C. Binding reactions were terminated by rapid filtration over GF/B glass fiber filter plates (PerkinElmer, Inc.) pre-treated in 1% BSA. Filter plates were rinsed three times with wash buffer (10 mM HEPES) to remove unbound radioactivity. The plates were then air-dried and 50 μL Microscint-20 liquid scintillation fluid (PerkinElmer, Inc.) were added to each well. The plates were then counted in a PerkinElmer Topcount liquid scintillation counter (PerkinElmer, Inc.). Binding data were analyzed by nonlinear regression analysis with the GraphPad Prism Software package (GraphPad Software, Inc., San Diego, Calif.) using the one-site competition model. Ki values for test compounds were calculated from observed IC50 values and the KD value of the radioligand using the Cheng-Prusoff equation (Cheng Y; Prusoff W H. (1973) Biochemical Pharmacology, 22(23):3099-108). […]

[2] = molecular target: T2, hM2 muscarinic receptor (Homo sapiens, UniProt P08172); conditions: M2 muscarinic receptor subtype, CHO cell membranes, [3H]-NMS 1 nM
T2 construct: expressed in transfected cells; host or cells: CHO / CHO-K1
T2 sequence (P08172 1-466): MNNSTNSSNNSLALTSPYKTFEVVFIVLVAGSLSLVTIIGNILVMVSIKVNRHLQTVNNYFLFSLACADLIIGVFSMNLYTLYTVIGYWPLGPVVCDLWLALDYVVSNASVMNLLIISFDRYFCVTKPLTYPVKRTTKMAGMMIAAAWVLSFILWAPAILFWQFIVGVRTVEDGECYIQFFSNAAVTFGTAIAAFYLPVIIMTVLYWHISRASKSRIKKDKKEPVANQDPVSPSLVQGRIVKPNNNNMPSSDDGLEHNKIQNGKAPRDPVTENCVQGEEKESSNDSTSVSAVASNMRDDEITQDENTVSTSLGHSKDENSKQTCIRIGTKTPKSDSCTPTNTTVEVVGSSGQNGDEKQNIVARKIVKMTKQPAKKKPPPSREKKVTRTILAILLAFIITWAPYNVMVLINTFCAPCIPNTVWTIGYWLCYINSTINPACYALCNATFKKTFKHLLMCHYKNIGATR
Description: as §1, §2

[3] = molecular target: T3, hM3 muscarinic receptor (Homo sapiens, UniProt P20309); conditions: M3 muscarinic receptor subtype, CHO cell membranes, [3H]-NMS 1 nM
T3 construct: expressed in transfected cells; host or cells: CHO
Description: as §1, §2

Measured: Ki

T3 sequence (P20309 whole entry): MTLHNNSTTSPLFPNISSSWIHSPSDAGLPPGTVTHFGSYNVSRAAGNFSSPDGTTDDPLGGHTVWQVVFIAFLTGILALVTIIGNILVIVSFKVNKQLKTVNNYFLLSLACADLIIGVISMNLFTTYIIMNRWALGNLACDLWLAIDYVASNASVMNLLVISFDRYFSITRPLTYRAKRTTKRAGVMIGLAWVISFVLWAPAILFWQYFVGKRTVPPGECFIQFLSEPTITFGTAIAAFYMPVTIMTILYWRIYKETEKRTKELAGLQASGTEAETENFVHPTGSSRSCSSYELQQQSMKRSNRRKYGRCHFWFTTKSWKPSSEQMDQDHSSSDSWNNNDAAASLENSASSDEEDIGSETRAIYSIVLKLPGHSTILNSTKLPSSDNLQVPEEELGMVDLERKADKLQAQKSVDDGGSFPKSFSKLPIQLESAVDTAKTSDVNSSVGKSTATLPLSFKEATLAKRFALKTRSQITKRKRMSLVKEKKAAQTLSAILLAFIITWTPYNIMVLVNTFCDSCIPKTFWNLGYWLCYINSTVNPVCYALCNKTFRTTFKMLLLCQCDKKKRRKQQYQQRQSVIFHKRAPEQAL

Cc1cc(NC(=O)CCN2CCC(OC(=O)Nc3ccccc3-c3ccccc3)CC2)c(C)cc1CNC[C@H](O)c1ccc(O)c(NC=O)c1 [compound of formula I, biphenyl-2-ylcarbamic acid 1-[2-(4-{[(R)-2-(3-formylamino-4-hydroxyphenyl)-2-hydroxyethylamino]methyl}-2,5-dimethylphenylcarbamoyl)ethyl]-piperidin-4-yl ester]
< 10 nM: all assays above
